These results are taken from paper PMC4627230, “Identification of TAX2 peptide as a new unpredicted anti-cancer agent” (Oncotarget, 2015).

In test [1] the test system is immobilized TSP-1 (thrombospondin from human platelets). The test is described as follows: ELISA binding of biotin-labeled peptides to immobilized TSP-1. Conditions: biotin-labeled peptide 10 μg/mL, 3 h, room temperature, 0.5% BSA; absorbance 450 nm; n = 3 in triplicate. As to the method:
Microtiter plates (Nunc, ThermoFisher Scientific, Courtaboeuf, France) were coated overnight at 4°C with 0.5 μg TSP-1 in sodium carbonate-bicarbonate (BupH) buffer (Thermo Fisher Scientific). Plates were washed with PBS 0.1% BSA (Sigma-Aldrich) and non-specific sites were saturated during 30 min using 1% (w/v) BSA in BupH buffer. Biotin-labeled peptide (10 μg/mL, determined after dose-response assay from 0.01 to 100 μg/mL) was added in buffer containing 0.5% (w/v) BSA and incubated for 3 h at room temperature. Non-labeled peptide (0.001 to 5 mg/mL) was used as selective competitor. Plates were washed with PBS containing 0.1% (w/v) BSA and treated for 30 min with mouse anti-biotin antibody. Bound antibody was quantified using the mouse IgG Elite Vectastain ABC kit (Vector Laboratories) followed by incubation with 1-Step Turbo TMB substrate as a chromogen (ThermoFisher Scientific). The reaction was stopped with 0.5 M H2SO4 and absorbance was read at 450 nm.
For orientation: An ELISA detects its analyte on a solid surface through an enzyme-linked reagent.

The next test concerns CD47. To be noted: ref [43]; cited from earlier work. The text has this: In addition to the putative effects that may be due to CD47 association with its co-receptors, TAX2-bound TSP-1 also remains able to bind a wide variety of ligands through the other domains of the multi-modular protein. Among these domains, a central region of TSP-1 called 3TSR (three TSP-1 type 1 repeats) binds to the CD36 membrane receptor, also leading to inhibition of angiogenesis. Indeed, CD36 ligation by TSP-1 is known to induce an anti-angiogenic response by promoting CD36 association with β1 integrin and VEGFR2 dimer in a tripartite complex, resulting in decreased VEGFR2 phosphorylatio ... || Figure 7 TAX2 induces a shift in TSP-1 binding from CD47 to CD36 A. In physiological conditions, most of TSP-1-related effects on vascular function are mediated by TSP-1 carboxy terminal domain interaction with CD47 receptor. B. Under TAX2 treatment preventing TSP-1:CD47 interaction, binding of the 3TSR module of TSP-1 to CD36 receptor is promoted, thus leading to an overall anti-angiogenic response (NTD, N-terminal domain; Col, procollagen-homology domain; CBD, carboxy terminal cell binding domain). TEXT PRINTED IN THE PICTURE: (A) TSP-1: CD36: 1-10 nM; CD47: 10-100 pM DOUBTS OF THE COPYIST A ...

“LSVDESKAQGIL [scrambled peptide, scrambled dodecapeptide used as a control (…), reference compound]”: the “binding to immobilized TSP-1” value in test [1] was “does not”.
“TSP-1: multimodular protein secreted as a disulfide-linked 450 kDa homotrimer”: the “binding affinity for CD47 compared to CD36” value in the test with CD47 is recorded as “higher compared to CD36 binding”.
